# Data taken from patent US20130281494A1, “POLYMORPHS OF N-(6-(4-CHLOROPHENOXY)HEXYL)-N'-CYANO-N"-(4-PYRIDYL)GUANIDINE, AND PREPARATION THEREOF AND USE THEREOF” (Tianjin Michele Sci-Tech Development Co., Ltd., priority 2010, published 2013).
# Legend:
# human tumor cells = conditions: nude mouse transplanted with human tumor cells; cited from earlier work
# [1] = tested on: human lung cancer tumor xenograft; conditions: cited from earlier work
# [2] = tested on: human lung cancer and breast cancer cell lines; conditions: cited from earlier work
# [3] = Stability of polymorphs exposed to the air at room temperature for 12 months, purity by HPLC; assay type: physicochemical; conditions: for Original Purity: before exposure; for Purity (after exposed for 12 months): exposed to the air at room temperature for 12 months
# Method: The obtained purity results thereof were shown s follows.
# The purities were measured by using high performance liquid chromatography under the following conditions.
# Chromatographic Column. […] ODS (150*4.6 mm, 5μ)
# Phase A: 11.5% (v/v) of acetonitrile aqueous solution containing 0.01 mol/L of lauryl sodium sulfate and 0.0125 mol/L of dipotassium hydrogen phosphate (adjusted to pH 2.5 with phosphoric acid)
# Column Temperature: 40° C.;
# Detection Wavelength: 278 nm;
Structure (SMILES),antitumor activity in vivo (human tumor cells),antitumor activity in the nude mice model [1],antiproliferative activity in vitro [2],Original Purity [3],Purity (after exposed for 12 months) [3]
N#C/N=C(\NCCCCCCOc1ccc(Cl)cc1)Nc1ccncc1 [N-(6-(4-chlorophenoxy)hexyl)-N′-cyano-N″-(4-pyridyl)guanidine],highly potent antitumor activity,potent antitumor activity,high antiproliferative activity,–,–
"N#C/N=C(\NCCCCCCOc1ccc(Cl)cc1)Nc1ccncc1 [Polymorph I, N-(6-(4-chlorophenoxy)hexyl)-N′-cyano-N″-(4-pyridyl)guanidine]",–,–,–,98.01%,97.49%
"N#C/N=C(\NCCCCCCOc1ccc(Cl)cc1)Nc1ccncc1 [Polymorph II, N-(6-(4-chlorophenoxy)hexyl)-N′-cyano-N″-(4-pyridyl)guanidine]",–,–,–,99.45%,99.36%
"N#C/N=C(\NCCCCCCOc1ccc(Cl)cc1)Nc1ccncc1 [Polymorph III, N-(6-(4-chlorophenoxy)hexyl)-N′-cyano-N″-(4-pyridyl)guanidine]",–,–,–,97.83%,97.56%
"N#C/N=C(\NCCCCCCOc1ccc(Cl)cc1)Nc1ccncc1 [Polymorph IV, N-(6-(4-chlorophenoxy)hexyl)-N′-cyano-N″-(4-pyridyl)guanidine]",–,–,–,99.59%,99.45%
"N#C/N=C(\NCCCCCCOc1ccc(Cl)cc1)Nc1ccncc1 [Polymorph V, N-(6-(4-chlorophenoxy)hexyl)-N′-cyano-N″-(4-pyridyl)guanidine]",–,–,–,95.82%,95.02%
"N#C/N=C(\NCCCCCCOc1ccc(Cl)cc1)Nc1ccncc1 [Polymorph VI, N-(6-(4-chlorophenoxy)hexyl)-N′-cyano-N″-(4-pyridyl)guanidine]",–,–,–,99.55%,99.28%
